For the experiment, the target named is Thromboxane A2 receptor (Cavia porcellus). Description: In vitro concentration that reduced specific binding of [3H][…] to guinea pig platelet receptor, Thromboxane A2 receptor by 50%.

As to `CCCCC[C@H](O)/C=C/[C@@H]1[C@@H](C/C=C\CCCC(=O)O)[C@H]2CO[C@@H]1C2` [(Z)-7-((1R,4S,5S,6R)-6-((S,E)-3-hydroxyoct-1-enyl)-2-oxabicyclo[2.2.1]heptan-5-yl)hept-5-enoic acid], the concentration for half-maximal inhibition (IC50) was 0.031 µM.
